# Results taken from patent US10807985B2 (Blueprint Medicines Corporation, priority 2013, dated 2020).
# How the values were obtained:
# [1] = biological target: KIT D816V kinase activity (KIT autophosphorylation at tyrosine 719) in HMC1.2 cells (Homo sapiens (Human), UniProt P10721, D816V/V560G); test: HMC1.2 autophosphorylation assay (phospho-Y719 c-KIT AlphaLISA); assay type: cell-based; details: HMC1.2 mast cell leukemia cell line (KIT V560G, D816V), 90 minutes compound; read-out: INH-KIT-PHOS-HMC1.2
# D816V KIT = D816V KIT (Homo sapiens (Human), UniProt P10721, D816V); test: KIT D816V assay at Km (Caliper electrophoretic mobility shift); details: biochemical, 15 uM ATP (Km), 90 minutes at 25 C; read-out: INH KIT D816V
# D816V KIT, sequence (P10721 26-976 D816V): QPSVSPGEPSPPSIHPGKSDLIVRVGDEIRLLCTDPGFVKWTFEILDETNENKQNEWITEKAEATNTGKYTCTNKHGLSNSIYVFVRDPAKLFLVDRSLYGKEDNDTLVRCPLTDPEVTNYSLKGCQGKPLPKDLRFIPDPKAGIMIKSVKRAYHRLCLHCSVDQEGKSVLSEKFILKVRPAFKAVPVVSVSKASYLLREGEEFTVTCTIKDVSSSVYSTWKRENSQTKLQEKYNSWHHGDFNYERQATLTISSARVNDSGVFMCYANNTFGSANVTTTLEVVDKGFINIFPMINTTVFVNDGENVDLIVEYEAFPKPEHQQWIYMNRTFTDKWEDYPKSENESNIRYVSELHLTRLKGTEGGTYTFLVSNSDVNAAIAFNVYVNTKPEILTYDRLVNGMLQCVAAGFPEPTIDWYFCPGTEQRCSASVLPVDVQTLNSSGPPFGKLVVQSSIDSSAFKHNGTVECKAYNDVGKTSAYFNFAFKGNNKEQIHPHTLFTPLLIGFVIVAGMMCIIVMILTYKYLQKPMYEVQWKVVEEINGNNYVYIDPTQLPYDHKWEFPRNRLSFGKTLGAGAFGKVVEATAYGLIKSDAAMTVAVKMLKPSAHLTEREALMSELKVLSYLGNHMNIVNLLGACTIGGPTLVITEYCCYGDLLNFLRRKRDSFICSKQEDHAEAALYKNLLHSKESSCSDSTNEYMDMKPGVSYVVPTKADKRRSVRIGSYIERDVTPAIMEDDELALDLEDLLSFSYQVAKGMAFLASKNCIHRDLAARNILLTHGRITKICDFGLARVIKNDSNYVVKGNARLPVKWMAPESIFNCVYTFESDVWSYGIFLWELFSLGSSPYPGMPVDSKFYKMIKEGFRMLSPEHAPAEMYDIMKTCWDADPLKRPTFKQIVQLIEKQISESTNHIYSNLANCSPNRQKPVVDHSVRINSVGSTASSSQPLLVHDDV
# KIT D816V kinase activity (KIT autophosphorylation at tyrosine 719) in HMC1.2 cells, sequence (P10721 26-976 V560G/D816V): as the sequence (P10721 26-976 D816V) above, with V535G counted along it
Structure (SMILES),IC50 [1],IC50 (D816V KIT)
Cc1ccc(-c2cc3c(N4CCN(c5ncc([C@@](C)(O)c6ccc(F)cc6)cn5)CC4)ncnn3c2)cc1 [Compound 59],100 to 1000 nM,10 to 100 nM
COc1cccc(-c2cc3c(N4CCN(c5ncc([C@@](C)(O)c6ccc(F)cc6)cn5)CC4)ncnn3c2)c1 [Compound 101],50 to 100 nM,10 to 100 nM
Cn1cc(-c2cc3c(N4CCN(c5ncc([C@](C)(N)c6c(F)cc(F)cc6F)cn5)CC4)ncnn3c2)cn1 [Compound 113],< 50 nM,< 1 nM
C[C@H](O)Cn1cc(-c2cc3c(N4CCN(c5ncc(Sc6ccccc6F)cn5)CC4)ncnn3c2)cn1 [Compound 105],< 50 nM,1.01 to 10 nM
CCn1cc(-c2cc3c(N4CCN(c5ncc([C@@](C)(O)c6ccc(F)cc6)cn5)CC4)ncnn3c2)cn1 [Compound 75],< 50 nM,< 1 nM
"Cn1cc(-c2cn3ncnc(N4CCN(c5ncc(C(C)(O)c6ccc(F)cc6)cn5)CC4)c3c2Cl)cn1 (stereo in doubt) [Compound 107, (S)-1-(2-(4-(5-chloro-6-(1-methyl-1H-pyrazol-4-yl)pyrrolo[1,2-f][1,2,4]triazin-4-yl)piperazin-1-yl)pyrimidin-5-yl)-1-(4-fluorophenyl)ethanol]",1000 to 10000 nM,> 100 nM
c1ccc(Cc2cnc(N3CCN(c4ncnn5cc(-c6cnn(C[C@@H]7CNCCO7)c6)cc45)CC3)nc2)cc1 [Compound 120],50 to 100 nM,< 1 nM
"C[C@](N)(c1ccccc1)c1cnc(N2CCN(c3ncnn4cc(-c5cn[nH]c5)cc34)CC2)nc1 (single isomer, unassigned) [Compound 12]",< 50 nM,–
"Cc1cc(-c2cc3c(N4CCN(c5ncc([C@](C)(O)c6ccc(F)cc6)cn5)CC4)ncnn3c2)no1 (single isomer, unassigned) [Compound 51]",–,10 to 100 nM

# The next lines start with the values.
IC50 [1],IC50 (D816V KIT),Structure (SMILES)
< 50 nM,1.01 to 10 nM,Cn1cc(-c2cc3c(N4CCN(c5ncc([C@@](C)(O)c6ccc(F)cc6Cl)cn5)CC4)ncnn3c2)cn1 [Compound 110]
< 50 nM,1.01 to 10 nM,Cn1cc(-c2cc3c(N4CCN(c5ncc([C@@H](N)c6ccc(F)cc6)cn5)CC4)ncnn3c2)cn1 [Compound 27]
> 10000 nM,> 100 nM,COc1ccc(-c2cc3c(N4CCN(c5ccccc5)CC4)ncnn3c2)cc1 [Compound 2]
100 to 1000 nM,1.01 to 10 nM,"Cn1cc(-c2cc3c(N4CCN(c5ncc([C@H](N)c6ccccc6)cn5)CC4)ncnn3c2)cn1 [Compound 13, (R)-(2-(4-(6-(1-methyl-1H-pyrazol-4-yl)pyrrolo[2,1-f][1,2,4]triazin-4-yl)piperazin-1-yl)pyrimidin-5-yl)(phenyl)methanamine]"
100 to 1000 nM,1.01 to 10 nM,Cn1cc(-c2cc3c(N4CCN(c5ncc(C6(c7ccc(F)cc7)COC6)cn5)CC4)ncnn3c2)cn1 [Compound 61]
100 to 1000 nM,10 to 100 nM,Cn1cc(-c2cc3c(N4CCN(c5ncc(Oc6ccc(F)cc6)cn5)CC4)ncnn3c2)cn1 [Compound 15]
100 to 1000 nM,1.01 to 10 nM,"CN(C)[C@@H](c1ccccc1)c1cnc(N2CCN(c3ncnn4cc(-c5cnn(C)c5)cc34)CC2)nc1 [Compound 36, (S)—N,N-dimethyl-1-(2-(4-(6-(1-methyl-1H-pyrazol-4-yl)pyrrolo[2,1-f][1,2,4]triazin-4-yl)piperazin-1-yl)pyrimidin-5-yl)-1-phenylmethanamine]"
100 to 1000 nM,1.01 to 10 nM,C[C@@H]1CN(c2ncnn3cc(-c4cnn(C)c4)cc23)CCN1c1ncc(Cc2ccccc2)cn1 [Compound 8]
–,> 100 nM,Cn1cc(-c2cc3c(N4CCN(c5ccccc5)CC4)ncnn3c2)cn1 [Compound 1]
< 50 nM,1.01 to 10 nM,Cn1cc(-c2cc3c(N4CCN(c5ncc([C@@H](O)c6ccc(F)cc6)cn5)CC4)ncnn3c2)cn1 [Compound 31]
–,10 to 100 nM,Cc1cc(F)ccc1[C@](C)(O)c1cnc(N2CCN(c3ncnn4cc(-c5cnn(C)c5)cc34)CC2)nc1 [Compound 80]
